Laboratory results: patent US20100310530A1, “Cell Therapy for Brain Tissue Damage” (StemCyte Inc., priority 2009, published 2010)

Experiments:
[1] = test system: hypoxia-inducible factor-1α (HIF-1α); test: Western blot of HIF-1α in HP- and DFX-treated hUCB^34 cells; format: cell-based, human; conditions: HP- and DFX-treated hUCBs^34
Method: (§1) hUCB^34 cells (1×10^6/mL) were cultured in a StemSpan SFEM medium (StemCell Technologies, Vancouver, Canada) at 37° C. in 5% CO2-humidified incubators in normoxic (20% O2) or hypoxic (1% O2) conditions as previously described (Ivanovic et al., 2000, Br J Haematol 108:424-429). Hypoxic cultures were cultivated in a two-gas incubator (Jouan, Winchester, Va., USA) equipped with an O2 probe to regulate N2 levels. Cell number and viability were evaluated using trypan blue exclusion assay. For flowcytometry, cells were incubated with anti-human CD34 (Miltenyi Biotec, Gladbach, Germany) and then analyzed on a FACSCalibur flow cytometer (Becton, Dickinson and Co.). To produce chemical hypoxia, cells were treated in a medium containing […] of Desferrioxamine (DFX, Sigma-Aldrich, MO) that mimics hypoxic conditions by inhibiting the hydroxylation of a prolyl residue that is essential for the ubiquitination of HIF-1α (Schioppa et al., 2003, J Exp Med 198:1391-1402). […] The intensity of each band was measured using a Kodak Digital Science 1D Image Analysis System (Eastman Kodak, Rochester, N.Y.). The ratio of band intensity of Western blots in comparison with the internal control was calculated. Results were expressed as the mean value of the ratio±SEM for preparations.

Epac1 = test: Western blot of Epac1 in hUCB^34 cells after hypoxia preconditioning or DFX; format: cell-based, human; conditions: cells treated with DFX, under either hypoxic or normoxic conditions
Method: as §1

ischemic rat brains = test: Cell engraftment and neural differentiation in ischemic brain (immunofluorescent colocalization); format: in vivo; conditions: injection of GM6001 or brefeldin A-pretreatment of cells
Method: (§2) Experimental rats and mice were divided into three groups (FIG. 2A): Intracerebral transplantation of hUCB^34 with HP (HP-hUCB^34), intracerebral transplantation of hUCB^34 without HP (hUCB^34), and a vehicle-control group. All transplantation took place on day 7. The HP-hUCB^34 group was treated in 1% O2 hypoxic conditions for 20-24 hours. Cerebral ischemia was induced in every experimental rat on day 0. At 7 days after cerebral ischemia, experimental rats in the two intracerebral hUCB^34 transplantation groups were injected stereotaxically with approximately 2×10^5 cells of hUCB^34 labeled with bis-benzimide in a 3-5 μL PBS suspension through a 26- or 30-gauge Hamilton syringe into 3 cortical areas, 3.0 to 5.0 mm (2.0 to 3.0 mm for mice) below the dura. The approximate coordinates for these sites were 1.0 to 2.0 mm (0 to 1.0 mm for mice) anterior to the bregma and 3.5 to 4.0 mm (2.0 to 2.5 mm for mice) lateral to the midline, 0.5 to 1.5 mm (0 to 1.0 mm for mice) posterior to the bregma and 4.0 to 4.5 mm (2.0 to 3.5 mm for mice) lateral to the midline, and 3.0 to 4.0 mm (1.5 to 2.5 mm for mice) posterior to the bregma and 4.5 to 5.0 mm (2.0 to 3.0 mm for mice) lateral to the midline. The needle was retained in place for 5 minutes after each injection and a piece of bone wax was applied to the skull defects to prevent leakage of the injected solution. […]

cerebral ischemia rats = test: Neurological behavioral measurements after cerebral ischemia (MCA ligation); format: in vivo, rat; conditions: GM6001 ip after HP-hUCB^34 implantation, or brefeldin A-incubated HP-hUCB^34; vs vehicle control
Method: as §2

cerebral ischemic rats = test: Neurite regeneration in vivo in cerebral ischemic rats; design: species or system rat; conditions: cells incubated with 10 μg/mL brefeldin A
Method: Experimental rats and mice were divided into three groups (FIG. 2A): Intracerebral transplantation of hUCB^34 with HP (HP-hUCB^34), intracerebral transplantation of hUCB^34 without HP (hUCB^34), and a vehicle-control group. All transplantation took place on day 7. The HP-hUCB^34 group was treated in 1% O2 hypoxic conditions for 20-24 hours. Cerebral ischemia was induced in every experimental rat on day 0. At 7 days after cerebral ischemia, experimental rats in the two intracerebral hUCB^34 transplantation groups were injected stereotaxically with approximately 2×10^5 cells of hUCB^34 labeled with bis-benzimide in a 3-5 μL PBS suspension through a 26- or 30-gauge Hamilton syringe into 3 cortical areas, 3.0 to 5.0 mm (2.0 to 3.0 mm for mice) below the dura. […]
Measurement of neurite regeneration was performed as described earlier (Cafferty et al., 2004, J Neurosci 24:4432-4443). […] For quantification analysis, neurons with processes greater than twice the cell body diameter were counted as neurite-bearing cells. The length of the longest neurite of each neuron was measured from digitized images and quantified using imaging analysis software (SigmaScan 4.01.003).

Structure (SMILES)	protein level of HIF-1α [1]	levels of Epac1 versus control cells (Epac1)	number of engrafted cells in HP-hUCB^34-treated rats with inhibitor (ischemic rat brains)	neurological behavior recovery after HP-hUCB^34 implantation in presence of inhibitor (cerebral ischemia rats)	neurite regeneration after transplantation of brefeldin A-incubated HP-hUCB^34 (cerebral ischemic rats)
CC(=O)N(O)CCCCCNC(=O)CCC(=O)N(O)CCCCCNC(=O)CCC(=O)N(O)CCCCCN [DFX, Desferrioxamine]	increase in the protein level	much higher levels of Epac1 than control cells	–	–	–
CNC(=O)[C@H](Cc1c[nH]c2ccccc12)NC(=O)[C@@H](CC(=O)NO)CC(C)C [GM6001]	–	–	diminished	almost no recovery	–
C[C@H]1CCC/C=C/[C@@H]2C[C@H](O)C[C@H]2[C@H](O)/C=C/C(=O)O1 [brefeldin A]	–	–	diminished	down-regulated to the same extent as that of control group	could not promote the neurite regeneration
